PMC11650849, “Brain endothelial permeability, transport, and flow assessed over 10 orders of magnitude using the in situ brain perfusion technique” (Fluids and Barriers of the CNS, 2024)
Where two headings read alike, the source gives them in different places.

Legend:
[1] = Neutral fraction at pH 7.4 calculated from pKa; format: physicochemical; conditions: neutral fraction at perfusion fluid pH 7.40, calculated from pKa
[2] = for Brain Kin: calculated at brain blood flow […] and rat serum fu; for Extraction (unbound) / Brain vascular extraction (total): calculated at brain blood flow […]; for Extraction (unbound): free drug; for Brain vascular extraction (total): with rat serum fu
[3] = rat, in vivo
[4] = cited from earlier work
[5] = cited from earlier work; for Log Poct: octanol partition coefficient
[6] = In situ rat brain perfusion (brain uptake Kin, extraction E, BBB PS)
[7] = ref Hansch et al. [123], Avdeef [46] or other sources
[8] = facilitated nutrients, transporter not given

## CC(N)=O [Acetamide]
[1]
  fn (%): 100%

## Cc1nnc2n1-c1ccc(Cl)cc1C(c1ccccc1)=NC2 [Alprasolam]
[1]
  fn (%): 100%

## CCCCO [Butanol]
[2]
  Brain Kin: 0.0229 mL/s/g
  Extraction (unbound): 99.8%
  Brain vascular extraction (total): 97.5%
[2]; protein-free physiologic saline pH 7.4
  Peak flow rate for 90% E: 3.8 mL/min/g
[2]; protein-free saline, pH 7.4
  Maximal flow—90% extraction, PcS/2.3: 0.064 mL/s/g
[3]
  Pc: 1470 ×10⁻⁶ cm/s
  PcS: 0.15 mL/s/g
  PoS: 0.13 mL/s/g
  Po: 1270 ×10⁻⁶ cm/s
[4]; rat
  fu,.p: 0.60
[1]
  fn (%): 100%

## C[C@]12CC[C@H](O)CC1=CC[C@@H]1[C@@H]2CC[C@]2(C)C(=O)CC[C@@H]12 [DHEA]
[4]; rat in vivo measurements
  fu,.p: 0.05
[5]; [7]
  Log Poct: 3.00
  Log Doct pH=7.4: 3.00
[1]
  fn (%): 100%

## CN(C)CCOC(c1ccccc1)c1ccccc1 [Diphenhydramine]
[1]
  fn (%): 1.96%

## CCO [Ethanol]
[2]
  Brain Kin: 0.0195 mL/s/g
  Extraction (unbound): 83.0%
  Brain vascular extraction (total): 81.4%
[4]; rat
  fu,.p: 0.95

## CCCCCCO [Hexanol]
[2]
  Extraction (unbound): 99.9%
  Brain vascular extraction (total): 89.1%
[4]; rat in vivo measurements
  fu,.p: 0.30
[1]
  fn (%): 100%

## O=C(O)c1cc(=O)c2ccccc2[nH]1 [Kynurenic acid]
[3]; pH 7.4
  Log Pc: −5.92
  Log PoS: 0.42
  PcS: 0.00012 mL/s/g
  PoS: 2.60 mL/s/g
  Log Po: −1.58
  Po: 26000 ×10⁻⁶ cm/s
[4]; rat in vivo measurements
  fu,.p: 1.00
[1]
  fn (%): 4.6E−7%

## N[C@@H](CCC(=O)O)C(=O)O [L-Glutamate]
[6]; [8]
  Log PS: −3.82
  PS: 0.000151 mL/s/g

## CC(=O)N[C@@H](CS)C(=O)O [N-acetyl-cysteine]
[2]
  Extraction (unbound): 7.60E-05%
  Brain vascular extraction (total): 7.60E-05%
[4]; rat in vivo measurements
  fu,.p: 1.00
[6]; Pc in cm/s
  Log Pc: −7.74
[6]; Po in cm/s
  Log Po: −7.74
[6]; PoS in mL/s/g
  Log PoS: −5.74
[6]; S assumed 100 cm^2/g
  Pc: 0.0182 ×10⁻⁶ cm/s
[6]; brain vascular intrinsic PoS
  PoS: 1.82e-06 mL/s/g
[6]; cerebral cortex, flow 0.1–[…], S = physiological saline, AB = artificial blood
  PcS: 1.82e-06 mL/s/g
[5]
  Log Doct pH=7.4: −3.70

## COc1ccc2cc([C@H](C)C(=O)O)ccc2c1 [Naproxen]
[1]
  fn (%): 0.05%

## NC(=O)c1cccnc1 [Nicotinamide]
[5]; [7]
  Log Poct: −0.34
  Log Doct pH=7.4: −0.34
[1]
  fn (%): 100%

## O=C1Nc2ccc(Cl)cc2C(c2ccccc2)=NC1O (stereo not shown) [Oxazepam]
[4]; rat
  fu,.p: 0.17
[1]
  fn (%): 100%

## CCCO [Propanol]
[4]; rat
  fu,.p: 0.74
[1]
  fn (%): 100%

## O=C(O)c1cccnc1C(=O)O [Quinolinic acid]
[2]
  Brain Kin: 0.00019 mL/s/g
  Extraction (unbound): 0.01%
  Brain vascular extraction (total): 0.0071%
[3]; pH 7.4
  Log Pc: −7.77
  Log PoS: −3.13
  Pc: 0.017 ×10⁻⁶ cm/s
  PcS: 1.7e-06 mL/s/g
  PoS: 0.000743 mL/s/g
  Log Po: −5.13
  Po: 7.43 ×10⁻⁶ cm/s
[4]; rat in vivo measurements
  fu,.p: 1.00
[5]; [7]
  Log Poct: −1.44
  Log Doct pH=7.4: −4.08

## CN1C(=O)C(O)N=C(c2ccccc2)c2cc(Cl)ccc21 (stereo not shown) [Temazepam]
[4]; rat
  fu,.p: 0.18
[1]
  fn (%): 100%

## Cc1nnc2n1-c1ccc(Cl)cc1C(c1ccccc1Cl)=NC2 [Triasolam]
[1]
  fn (%): 100%

## NC(N)=O [Urea]
[4]; rat in vivo measurements
  fu,.p: 1.00
[5]; [7]
  Log Poct: −1.66
  Log Doct pH=7.4: −1.66
[1]
  fn (%): 100%

## O [Water]
[2]; plasma
  Brain Equilibration t1/2, Calculated: 48.6 s
[3]
  BBB PcS: 0.029 mL/s/g
  Brain Equilibration t1/2, Measured: 60 s
  Kin Underestimate (linear regression vs two compartment model): 54%
  Log Pc: −3.54
  Log PoS: −1.54
  Pc: 287 ×10⁻⁶ cm/s
  PcS: 0.029 mL/s/g
  PoS: 0.0287 mL/s/g
  Log Po: −3.54
  Po: 287 ×10⁻⁶ cm/s
[4]; rat in vivo measurements
  fu,.p: 1.00
[5]; [7]
  Log Poct: −0.59
  Log Doct pH=7.4: −0.59
